In brackets after ≈: the same amount, converted by molar mass. One block for each molecule: values may come before it.
What was measured:
[1] = Oral bioavailability in rhesus monkey at 21 mg/kg; format: ADME, organism-based, Macaca mulatta; conditions: in vivo
[2] = Inhibition of urease (unknown origin) measured after 20 mins
[3] = molecular target: T1, Dipeptidyl peptidase 4 (Homo sapiens, UniProt P27487); test: Inhibition of human DPP4
[4] = molecular target: T2, Tyrosinase (Homo sapiens, UniProt P14679); test: Inhibition of tyrosinase (unknown origin) incubated for 20 mins
T2 sequence (P14679 whole entry): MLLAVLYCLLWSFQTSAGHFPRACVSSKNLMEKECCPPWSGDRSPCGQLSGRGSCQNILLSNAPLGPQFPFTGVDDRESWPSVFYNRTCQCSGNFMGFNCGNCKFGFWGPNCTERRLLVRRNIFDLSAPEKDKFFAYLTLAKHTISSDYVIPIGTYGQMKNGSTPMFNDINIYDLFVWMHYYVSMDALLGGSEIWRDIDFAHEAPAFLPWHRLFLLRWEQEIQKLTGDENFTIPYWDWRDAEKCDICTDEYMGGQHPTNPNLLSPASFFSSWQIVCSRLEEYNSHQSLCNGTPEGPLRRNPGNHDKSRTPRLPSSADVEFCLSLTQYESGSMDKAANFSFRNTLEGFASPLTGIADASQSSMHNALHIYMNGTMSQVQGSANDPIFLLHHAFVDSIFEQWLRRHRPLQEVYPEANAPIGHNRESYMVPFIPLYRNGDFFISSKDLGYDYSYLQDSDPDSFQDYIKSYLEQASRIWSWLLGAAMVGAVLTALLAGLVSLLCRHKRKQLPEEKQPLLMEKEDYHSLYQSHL

[5] = test system: Entamoeba histolytica; test: Antiparasitic activity against Entamoeba histolytica HM1:1MSS assessed as parasitic growth inhibition by microdilution method; format: functional, organism-based
[6] = molecular target: T3, Calcitonin gene-related peptide 1 (Homo sapiens, UniProt P06881); test: Inhibition of CGRP (unknown origin)
T3 sequence (P06881 whole entry): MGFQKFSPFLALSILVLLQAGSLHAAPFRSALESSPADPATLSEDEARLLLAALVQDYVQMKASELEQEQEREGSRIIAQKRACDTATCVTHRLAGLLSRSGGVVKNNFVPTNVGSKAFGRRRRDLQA

[7] = molecular target: T1, Dipeptidyl peptidase 4; test: Inhibition of DPP4 (unknown origin)
[8] = molecular target: T4, Tyrosinase (Homo sapiens) (UniProt P14679); test: Inhibition of tyrosinase (unknown origin) assessed as enzyme residual activity at 0.07 mg/ml relative to control; values are per cent of control
T4 sequence (whole entry): T2 sequence (P14679 whole entry)

[9] = molecular target: T4, Tyrosinase (Homo sapiens); test: Inhibition of tyrosinase (unknown origin) relative to control; conditions: concentration not given here
[10] = molecular target: T5, Amine oxidase [flavin-containing] B (Homo sapiens, UniProt P27338); test: Inhibition of MAO-B (unknown origin)
T5 sequence (P27338 whole entry): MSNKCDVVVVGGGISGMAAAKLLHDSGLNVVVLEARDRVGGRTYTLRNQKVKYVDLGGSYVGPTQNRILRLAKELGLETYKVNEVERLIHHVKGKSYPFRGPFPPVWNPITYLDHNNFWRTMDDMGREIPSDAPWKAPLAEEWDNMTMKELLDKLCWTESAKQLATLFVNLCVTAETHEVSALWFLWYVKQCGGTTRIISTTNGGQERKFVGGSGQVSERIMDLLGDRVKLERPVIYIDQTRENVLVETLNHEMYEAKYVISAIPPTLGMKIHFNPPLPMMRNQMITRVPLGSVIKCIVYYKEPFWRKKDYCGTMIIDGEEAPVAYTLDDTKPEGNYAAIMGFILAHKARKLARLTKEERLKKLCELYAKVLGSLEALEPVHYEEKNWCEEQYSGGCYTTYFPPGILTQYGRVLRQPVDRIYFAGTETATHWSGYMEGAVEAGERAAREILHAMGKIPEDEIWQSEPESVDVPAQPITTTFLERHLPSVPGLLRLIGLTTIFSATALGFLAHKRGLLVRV

[11] = Half life in rhesus monkey at 1 mg/kg, iv; format: ADME, organism-based, Macaca mulatta; conditions: in vivo
[12] = molecular target: GABA-A receptor; anion channel; test: In vivo receptor occupancy at GABAA receptor in po dosed Sprague-Dawley rat assessed as plasma concentration causing 50% reduction at 0.39 mg/kg measured after 48 hrs by LC/MS method; format: functional, organism-based
[13] = Half life in human; format: ADME
[14] = Half life in Sprague-Dawley rat at 1 mg/kg; format: ADME, organism-based; conditions: in vivo
[15] = Half life in dog at 1 mg/kg; format: ADME, organism-based, Canis lupus familiaris; conditions: in vivo
[16] = Plasma protein binding in rhesus monkey; format: ADME, cell-free; conditions: Macaca mulatta
[17] = molecular target: T6, Cyclin-dependent kinase 2 (Homo sapiens, UniProt P24941); test: Inhibition of CDK2 (unknown origin); conditions: concentration not given here
[18] = molecular target: T6, Cyclin-dependent kinase 2; test: Inhibition of human CDK2 at 10 uM
[19] = Antiproliferative activity against human NCI cells assessed as reduction in cell viability at 100 uM by MTT assay; format: functional; conditions: read-out: GI
[20] = molecular target: T7, Glucose-dependent insulinotropic receptor (Homo sapiens, UniProt Q8TDV5); test: Inhibition of GPR119 (unknown origin) at 10 uM
T7 sequence (Q8TDV5 whole entry): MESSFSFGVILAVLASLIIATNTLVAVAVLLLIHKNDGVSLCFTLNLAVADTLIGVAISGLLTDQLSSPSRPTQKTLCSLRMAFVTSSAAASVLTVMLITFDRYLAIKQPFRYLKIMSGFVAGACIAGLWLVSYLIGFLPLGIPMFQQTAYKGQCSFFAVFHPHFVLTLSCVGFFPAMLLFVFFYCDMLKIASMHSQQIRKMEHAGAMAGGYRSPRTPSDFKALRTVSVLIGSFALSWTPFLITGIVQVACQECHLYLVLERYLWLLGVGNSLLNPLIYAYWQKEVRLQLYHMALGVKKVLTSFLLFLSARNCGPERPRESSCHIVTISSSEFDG

[21] = test system: A549; test: Antiproliferative activity against human A549 cells; format: functional, cell-based
[22] = molecular target: T8, Purine nucleoside phosphorylase (Homo sapiens, UniProt P00491); test: Inhibition of PNP (unknown origin) expressed in Escherichia coli
T8 sequence (P00491 whole entry): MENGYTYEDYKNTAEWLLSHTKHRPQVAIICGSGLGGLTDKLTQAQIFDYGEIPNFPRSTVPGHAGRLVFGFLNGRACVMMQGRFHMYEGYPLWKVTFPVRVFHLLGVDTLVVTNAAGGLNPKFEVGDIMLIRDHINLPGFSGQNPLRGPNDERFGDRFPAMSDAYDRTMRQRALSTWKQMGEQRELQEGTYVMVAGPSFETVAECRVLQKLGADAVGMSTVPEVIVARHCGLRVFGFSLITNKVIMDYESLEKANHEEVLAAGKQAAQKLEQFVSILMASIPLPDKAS

[23] = test system: A549; test: Cytotoxicity against human A549 cells assessed as reduction in cell viability at 100 uM by MTT assay; format: functional, cell-based
[24] = test system: MDA-MB-231; test: Cytotoxicity against human MDA-MB-231 cells assessed as reduction in cell viability at 100 uM by MTT assay; format: functional, cell-based

T1 sequence (P27487 whole entry): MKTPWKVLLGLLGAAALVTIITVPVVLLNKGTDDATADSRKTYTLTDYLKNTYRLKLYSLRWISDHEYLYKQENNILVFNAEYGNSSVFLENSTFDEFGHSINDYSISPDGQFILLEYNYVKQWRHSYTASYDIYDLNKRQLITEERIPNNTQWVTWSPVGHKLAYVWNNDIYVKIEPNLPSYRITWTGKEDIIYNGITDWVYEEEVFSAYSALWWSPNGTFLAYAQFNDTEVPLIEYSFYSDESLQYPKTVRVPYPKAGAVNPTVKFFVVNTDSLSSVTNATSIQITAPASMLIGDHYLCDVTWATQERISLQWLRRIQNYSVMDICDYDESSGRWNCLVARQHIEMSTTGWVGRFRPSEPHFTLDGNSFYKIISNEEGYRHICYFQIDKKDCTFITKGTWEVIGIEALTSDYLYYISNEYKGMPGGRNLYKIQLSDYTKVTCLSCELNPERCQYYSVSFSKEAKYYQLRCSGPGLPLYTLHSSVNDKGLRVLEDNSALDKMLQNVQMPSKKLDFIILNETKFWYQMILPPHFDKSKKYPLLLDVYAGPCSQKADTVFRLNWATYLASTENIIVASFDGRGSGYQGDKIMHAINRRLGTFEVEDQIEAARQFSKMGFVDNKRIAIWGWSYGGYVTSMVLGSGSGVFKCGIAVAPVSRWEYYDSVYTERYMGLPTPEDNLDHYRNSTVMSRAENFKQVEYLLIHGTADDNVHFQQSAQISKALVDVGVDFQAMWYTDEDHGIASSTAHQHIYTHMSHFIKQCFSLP

bioavailability [1]: 50%
Compound: COCC(COC)Nc1nc(C)nc2c(-c3ccc(Cl)cc3Cl)c(C)nn12

Compound: NC(N)=S [THIOUREA]
IC50 [2]: 20.9 µM

IC50 [3]: 63.6 µM
Compound: N/C(=N\O)c1cnn2c(=O)c([N+](=O)[O-])n[nH]c12

IC50 [4]: 27.9 µM
Compound: CCOc1ccc(S(=O)(=O)N[C@@H](CO)CC(C)C)cc1-c1nnc2c(n1)c(C)nn2C

IC50 [4]: 30.8 µM
Compound: CCOc1ccc(S(=O)(=O)N[C@H](C)CO)cc1-c1nnc2c(n1)c(C)nn2C

Compound: Cc1nnc2n(NC(=S)NC3CCCCC3)c(C)nnc1-2
IC50 [5]: 0.81 µM

IC50 [6]: 52.2 µM
Compound: CN(C)CCCNc1nc(N)nc2cc(-c3ccccc3)nn12

IC50 [7]: 54 µM
Compound: CCOC(=O)c1n[nH]c2c(C(=O)OCC)cnn2c1=O

residual activity [8]: 96.3% | inhibition [9]: 3.7%
Compound: CCOc1ccc(S(=O)(=O)NCCN)cc1-c1nnc2c(n1)c(C)nn2C

IC50 [10]: 24.5 µM
Compound: CCSc1nc(-c2ccc(C)cc2)n2nc(C)cc2n1

Compound: Cc1nnc2n(NC(=S)NC3C4CC5CC(C4)CC3C5)c(C)nnc1-2 (centres undefined)
IC50 [5]: 0.54 µM

Compound: Cc1ncc([N+](=O)[O-])n1CCO [METRONIDAZOLE]
IC50 [5]: 1.81 µM

IC50 [7]: 48.1 µM
Compound: CCOC(=O)c1cnn2c(=O)c(C(=O)NC(C)(C)C)n[nH]c12

half-life [11]: 18 min | EC50 [12]: 0.0407 µM | half-life [13]: 210 min | half-life [14]: 30 min | half-life [15]: 30 min | EC50 [16]: 0.021 µg/mL (≈ 0.057 µM)
Compound: Cc1cc(-c2nncc3c(C(C)(C)C)c(OCc4ncnn4C)nn23)no1

IC50 [6]: 7.6 µM
Compound: Cc1ccc(Nc2nc(N)nc3cc(-c4ccccc4)nn23)cc1

Compound: O=C(NCCc1ccccc1)c1cnn2c(-c3ccc(Cl)cc3)nc(NCCc3ccccc3)nc12
inhibition [17]: 82% | IC50 [18]: 2.09 µM | inhibition of growth at 100 µM [19]: 33.3%

IC50 [3]: 620 µM
Compound: CCOC(=O)c1cnn2c(=O)c([N+](=O)[O-])n[nH]c12

IC50 [2]: 0.042 µM
Compound: CCOc1ccc(S(=O)(=O)N[C@H](CO)CC(C)C)cc1-c1nnc2c(n1)c(C)nn2C

IC50 [2]: 0.037 µM
Compound: CCOc1ccc(S(=O)(=O)N[C@@H](C)CO)cc1-c1nnc2c(n1)c(C)nn2C

IC50 [20]: 18.4 µM | IC50 [6]: 51.2 µM
Compound: Nc1nc(Nc2ccc(F)cc2)n2nc(-c3ccccc3)cc2n1

Compound: Cc1nnc2n(NC(=S)NC3CCCCCCC3)c(C)nnc1-2
IC50 [5]: 0.81 µM

IC50 [21]: 53 µM
Compound: O=c1cc2nc(-c3ccccc3)nc(SCCc3ccccc3)n2[nH]1

IC50 [22]: 40 µM
Compound: CSC1=NNC2NN=C(C)C2=N1 (centres undefined)

Compound: CCOC(=O)c1cnn2c(-c3ccc(Cl)cc3)nc(NCc3ccccc3)nc12
inhibition [17]: 82.4% | IC50 [18]: 1.85 µM | inhibition of growth at 100 µM [19]: 41.8%

Compound: O=c1[nH]c(=O)n([C@H]2C[C@H](O)[C@@H](CO)O2)cc1F [FLOXURIDINE]
IC50 [23]: 5.8 µM | IC50 [24]: 38 µM

IC50 [2]: 0.044 µM
Compound: CCOc1ccc(S(=O)(=O)NC[C@@H](C)O)cc1-c1nnc2c(n1)c(C)nn2C

IC50 [3]: 61.1 µM
Compound: N#Cc1cnn2c(=O)c([N+](=O)[O-])n[nH]c12

From ChEMBL document CHEMBL5241085, “Pyrazolotriazines: Biological activities, synthetic strategies and recent developments” (Eur J Med Chem, 2021)
